Assay in all cases: relative viability (nuclei count vs DMSO), 5 days (fraction); higher = more cells survive
Compound in the test “BI-2536 + Luminespib”: CC[C@@H]1C(=O)N(C)c2cnc(Nc3ccc(C(=O)NC4CCN(C)CC4)cc3OC)nc2N1C1CCCC1 [BI-2536] + CCNC(=O)c1noc(-c2cc(C(C)C)c(O)cc2O)c1-c1ccc(CN2CCOCC2)cc1 [Luminespib] (partner 0.01 µM)
The procedure, abridged:
(§1)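 Medians of duplicate plates are given as relative viability. That measure is the nuclei count in treated wells divided by the count in vehicle wells. Counts were taken on 4× images of lung cancer cell lines in 1536-well plates, 5 days after pin-tool dosing the day after seeding with one drug alone or a fixed anchor-drug dose plus five library-drug doses (not always all listed) in √10 steps.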

Compound in the test “BI-2536 + AZD7762”: CC[C@@H]1C(=O)N(C)c2cnc(Nc3ccc(C(=O)NC4CCN(C)CC4)cc3OC)nc2N1C1CCCC1 [BI-2536] + NC(=O)Nc1cc(-c2cccc(F)c2)sc1C(=O)N[C@H]1CCCNC1 [AZD7762] (partner 0.2 µM)
The method, boiled down: as §1

Compound in the test “BI-2536 + Lapatinib”: CC[C@@H]1C(=O)N(C)c2cnc(Nc3ccc(C(=O)NC4CCN(C)CC4)cc3OC)nc2N1C1CCCC1 [BI-2536] + CS(=O)(=O)CCNCc1ccc(-c2ccc3ncnc(Nc4ccc(OCc5cccc(F)c5)c(Cl)c4)c3c2)o1 [Lapatinib] (partner 2 µM)
The method, boiled down: as §1

Compound in the test “NPK76-II-72-1 + OSI-027”: CC1CC(=O)N(C2=CN=C(N=C2N1C3CCCC3)NC4=C(C=C(C=C4)C(=O)NC5CCN(CC5)C)OC)C [NPK76-II-72-1] + COc1cccc2cc(-c3nc([C@H]4CC[C@H](C(=O)O)CC4)n4ncnc(N)c34)[nH]c12 [OSI-027] (partner 0.5 µM)
The method, boiled down:
as §1

In the case of H3255, the relative viability worked out at 0.846 with BI-2536 + Luminespib (first compound 0.01 µM); 1.13 with BI-2536 + Luminespib (first compound 0.03162 µM); 0.691 in the test with BI-2536 + Luminespib (first compound 0.1 µM); 0.239 in the test with BI-2536 + Luminespib (first compound 0.3162 µM); 0.359 with BI-2536 + Luminespib (first compound 1 µM); 0.951 with BI-2536 + AZD7762 (first compound 0.01 µM). The relative viability with BI-2536 + AZD7762 (first compound 0.03162 µM) came to 0.728; with BI-2536 + AZD7762 (first compound 0.1 µM), 0.66; with BI-2536 + AZD7762 (first compound 0.3162 µM), 0.228; with BI-2536 + AZD7762 (first compound 1 µM), 0.298; in the test with BI-2536 + Lapatinib (first compound 0.01 µM), 0.256; in the test with BI-2536 + Lapatinib (first compound 0.03162 µM) it was 0.225. The relative viability with BI-2536 + Lapatinib (first compound 0.1 µM) was 0.076; with BI-2536 + Lapatinib (first compound 0.3162 µM), 0.117; with BI-2536 + Lapatinib (first compound 1 µM), 0.143; in the test with NPK76-II-72-1 + OSI-027 (first compound 0.01 µM) it was 0.445; with NPK76-II-72-1 + OSI-027 (first compound 0.03162 µM) it was 0.483; with NPK76-II-72-1 + OSI-027 (first compound 0.1 µM), 0.531. The relative viability in the test with NPK76-II-72-1 + OSI-027 (first compound 0.3162 µM) amounted to 0.416; with NPK76-II-72-1 + OSI-027 (first compound 1 µM), 0.588.
For NCI-H1792, the relative viability with BI-2536 + Luminespib (first compound 0.01 µM) amounted to 0.485; with BI-2536 + Luminespib (first compound 0.03162 µM) it was 0.432; in the test with BI-2536 + Luminespib (first compound 0.1 µM) it was 0.388; with BI-2536 + Luminespib (first compound 0.3162 µM), 0.229; with BI-2536 + Luminespib (first compound 1 µM) it was 0.28; in the test with BI-2536 + AZD7762 (first compound 0.01 µM), 0.704. The relative viability turned out to be 0.692 in the test with BI-2536 + AZD7762 (first compound 0.03162 µM); 0.415 in the test with BI-2536 + AZD7762 (first compound 0.1 µM); 0.0392 with BI-2536 + AZD7762 (first compound 0.3162 µM); 0.0281 in the test with BI-2536 + AZD7762 (first compound 1 µM); 0.93 with BI-2536 + Lapatinib (first compound 0.01 µM); 0.751 with BI-2536 + Lapatinib (first compound 0.03162 µM). The relative viability stood at 1.09 with BI-2536 + Lapatinib (first compound 0.1 µM); 0.186 with BI-2536 + Lapatinib (first compound 0.3162 µM); 0.0746 in the test with BI-2536 + Lapatinib (first compound 1 µM); 0.701 in the test with NPK76-II-72-1 + OSI-027 (first compound 0.01 µM); 0.734 with NPK76-II-72-1 + OSI-027 (first compound 0.1 µM); 0.753 in the test with NPK76-II-72-1 + OSI-027 (first compound 0.3162 µM). Further, the relative viability in the test with NPK76-II-72-1 + OSI-027 (first compound 1 µM) turned out to be 0.802.
Regarding NCI-H2087, the relative viability was 0.161 with BI-2536 + Luminespib (first compound 0.01 µM); 0.182 with BI-2536 + Luminespib (first compound 0.03162 µM); 0.139 in the test with BI-2536 + Luminespib (first compound 0.1 µM); 0.136 with BI-2536 + Luminespib (first compound 0.3162 µM); 0.157 with BI-2536 + Luminespib (first compound 1 µM); 1.26 with BI-2536 + AZD7762 (first compound 0.01 µM). Moreover, the relative viability amounted to 1.45 with BI-2536 + AZD7762 (first compound 0.03162 µM); 1.23 in the test with BI-2536 + AZD7762 (first compound 0.1 µM); 0.111 with BI-2536 + AZD7762 (first compound 0.3162 µM); 0.114 with BI-2536 + AZD7762 (first compound 1 µM); 1.38 with BI-2536 + Lapatinib (first compound 0.01 µM); 0.992 with BI-2536 + Lapatinib (first compound 0.03162 µM). The relative viability with BI-2536 + Lapatinib (first compound 0.1 µM) came out at 0.594; with BI-2536 + Lapatinib (first compound 0.3162 µM) it was 0.138; with BI-2536 + Lapatinib (first compound 1 µM), 0.146; with NPK76-II-72-1 + OSI-027 (first compound 0.01 µM), 0.486; with NPK76-II-72-1 + OSI-027 (first compound 0.03162 µM), 0.644; in the test with NPK76-II-72-1 + OSI-027 (first compound 0.1 µM) it was 0.491. In addition, the relative viability with NPK76-II-72-1 + OSI-027 (first compound 0.3162 µM) worked out at 0.513; in the test with NPK76-II-72-1 + OSI-027 (first compound 1 µM), 0.645.
Regarding NCI-H727, the relative viability in the test with BI-2536 + Luminespib (first compound 0.01 µM) amounted to 0.589; with BI-2536 + Luminespib (first compound 0.03162 µM), 0.324; in the test with BI-2536 + Luminespib (first compound 0.1 µM), 0.263; with BI-2536 + Luminespib (first compound 0.3162 µM), 0.4; with BI-2536 + Luminespib (first compound 1 µM), 0.201; with BI-2536 + AZD7762 (first compound 0.01 µM) it was 0.479. The relative viability was found to be 0.8 with BI-2536 + AZD7762 (first compound 0.03162 µM); 0.664 with BI-2536 + AZD7762 (first compound 0.1 µM); 0.406 with BI-2536 + AZD7762 (first compound 0.3162 µM); 0.314 in the test with BI-2536 + AZD7762 (first compound 1 µM); 0.972 in the test with BI-2536 + Lapatinib (first compound 0.01 µM); 0.853 with BI-2536 + Lapatinib (first compound 0.03162 µM). Further, the relative viability was found to be 0.512 with BI-2536 + Lapatinib (first compound 0.1 µM); 0.268 with BI-2536 + Lapatinib (first compound 0.3162 µM); 0.242 with BI-2536 + Lapatinib (first compound 1 µM); 0.496 with NPK76-II-72-1 + OSI-027 (first compound 0.01 µM); 0.637 with NPK76-II-72-1 + OSI-027 (first compound 0.03162 µM); 0.602 in the test with NPK76-II-72-1 + OSI-027 (first compound 0.1 µM). Further, the results for the relative viability with NPK76-II-72-1 + OSI-027 (first compound 0.3162 µM) and with NPK76-II-72-1 + OSI-027 (first compound 1 µM) were 0.564 and 0.668, respectively.

For the origin of these results see the supplement of paper PMC10307832.
